One assay has as its system E. coli. The settings on record: E. coli strain tested; values as generally found; cited from earlier work.
A further assay deals with S. aureus. Nature of the assay: Rapid AST, vancomycin dilution series read by Eu-cryptate-diamine surface binding (TRF). It counts as cell-based. Particulars: Staphylococcus aureus, CTAB pretreatment, CTAB removed before probe, TRF 330/615 nm, read-out: minimum inhibitory concentration (MIC). The method, then: S. aureus were prepared by diluting colonies into saline to reach a McFarland value of 0.5, which was verified using a spectrophotometer, diluted, and inoculated into 96-well plates containing cation-adjusted Mueller Hinton broth and doubling dilutions of vancomycin. Plates were incubated at 35° C., shaking at 150 rpm for 3 hours, after which 10 μl of Alamar Blue were added to each well and plates were incubated for 1 additional hour. After this incubation, 100 μl of a 0.03% Cetyltrimethylammonium bromide with 0.1M EDTA solution was added to each well. The plates were placed on a shaker at 450 RPM for 10 minutes, followed by centrifugation at 2500×g for 2.5 minutes. The wells were aspirated and 100 μL PBS with 0.05% Tween-20 (PBST) or 100 μl of a 0.03% Cetyltrimethylammonium bromide with 0.1M EDTA solution was added back into the wells. Ten microliters of Eu-cryptate-diamine (5 ng/well) was added to each well and the plates were shaken for 10 minutes. The plates were then centrifuged, the wells aspirated, and 200 μL 1×PBST were added to each well. These steps were repeated twice. After the final wash, time-resolved fluorescence (TRF) for all wells was read at 330/615 nm.

The subject of the next assay is K. pneumoniae. Nature of the assay: Anionic ratio (growth in colistin vs MHB, Alamar Blue fluorescence). It counts as cell-based. The settings on record: 4 μg/ml colistin, Ex560/Em590. The method, then: (§1) P. mirabilis and K. pneumoniae were prepared by diluting colonies into saline to reach a McFarland value of 0.5, which was verified using a spectrophotometer, diluted, and inoculated into 96-well plates containing cation-adjusted Mueller Hinton broth and doubling dilutions of gentamycin (GEN) and ciproflaxin (CIP). Plates were incubated at 35° C., shaking at 150 rpm for 3 hours, after which 10 μl of Alamar Blue were added to each well and plates were incubated for 1 additional hour. After this incubation, Alamar Blue signal was read as the fluorescent signal Ex560/Em590. […] After the final wash, time-resolved fluorescence (TRF) for all wells was read at 330/615 nm.
(§2) The anionic ratios were calculated from the background subtracted fluorescent signal (Ex560/Em590) of bacteria grown in 4 μg/ml colistin divided by the background subtracted fluorescent signal of bacteria grown in MHB. […]

The test system of another assay is P. mirabilis. The description is as above. It counts as cell-based. Particulars: 4 μg/ml colistin, Ex560/Em590. On the procedure:
as §1, §2

Values after ≈ are worked out from the molar mass of the structure shown.

Regarding `CC[C@H]1OC(=O)[C@H](C)[C@@H](O[C@H]2C[C@@](C)(OC)[C@@H](O)[C@H](C)O2)[C@H](C)[C@@H](O[C@@H]2O[C@H](C)C[C@H](N(C)C)[C@H]2O)[C@](C)(O)C[C@@H](C)CN(C)[C@H](C)[C@@H](O)[C@]1(C)O` [ATM, azithromycin], in the assay on E. coli, the MIC values result is “less than or equal to 0.25 μg/ml”. For the compound `CN[C@H](CC(C)C)C(=O)N[C@H]1C(=O)N[C@@H](CC(N)=O)C(=O)N[C@H]2C(=O)N[C@H]3C(=O)N[C@H](C(=O)N[C@H](C(=O)O)c4cc(O)cc(O)c4-c4cc3ccc4O)[C@H](O)c3ccc(c(Cl)c3)Oc3cc2cc(c3O[C@@H]2O[C@H](CO)[C@@H](O)[C@H](O)[C@H]2O[C@H]2C[C@](C)(N)[C@H](O)[C@H](C)O2)Oc2ccc(cc2Cl)[C@H]1O` [VAN, vancomycin], in the assay with S. aureus, the MIC amounted to 2 µg/mL (≈ 1.38 µM). As for colistin, the results for the “anionic ratio (background subtracted fluorescent signal in colistin divided by signal in MHB)” value with K. pneumoniae and in the assay with P. mirabilis were −0.08 and 0.96, respectively.

The values above are taken from patent publication US11649477B2, “Assays and reagents for antimicrobial susceptibility testing” (SELUX DIAGNOSTICS, INC., priority 2018, dated 2023).
